Laboratory results from ChEMBL document CHEMBL1201862, “PubChem BioAssay data set” (2004).
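Assay format: 96-well plates, 48-hour exposure. Abbreviation: GI50, concentration required for 50% inhibition of growth.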 Activity calls are given as the source filed them. No stated cut-off is given here; in the data, active = GI50 up to about 1.1 µM and inactive = higher.

Experiments:
Assay in all cases: NCI-60 cell line screen, 48 h
[1] = system: RXF 393
[2] = system: MOLT-4
[3] = system: HOP-62
[4] = system: HCC 2998
[5] = system: ACHN
[6] = system: SNB-75
[7] = system: EKVX
[8] = system: DU-145
[9] = system: M14
[10] = system: Malme-3M
[11] = system: SF-295
[12] = system: HCT-116
[13] = system: OVCAR-8
[14] = system: MDA-MB-231
[15] = system: T47D
[16] = system: UACC-257
[17] = system: SK-MEL-28
[18] = system: SR
[19] = system: OVCAR-4
[20] = system: HL-60

| Structure (SMILES) | GI50 [1] | GI50 [2] | GI50 [3] | GI50 [4] | GI50 [5] | GI50 [6] | GI50 [7] | GI50 [8] | GI50 [9] | GI50 [10] | GI50 [11] | GI50 [12] | GI50 [13] | GI50 [14] | GI50 [15] | GI50 [16] | GI50 [17] | GI50 [18] | GI50 [19] | GI50 [20] |
| --- | --- | --- | --- | --- | --- | --- | --- | --- | --- | --- | --- | --- | --- | --- | --- | --- | --- | --- | --- | --- |
| O=C(NCCO)c1ccc(Cl)cc1 | > 100 µM (inactive) | > 100 µM (inactive) | > 100 µM (inactive) | > 100 µM (inactive) | > 100 µM (inactive) | > 100 µM (inactive) | > 100 µM (inactive) | > 100 µM (inactive) | > 100 µM (inactive) | > 100 µM (inactive) | > 100 µM (inactive) | > 100 µM (inactive) | > 100 µM (inactive) | > 100 µM (inactive) | > 100 µM (inactive) | > 100 µM (inactive) | > 100 µM (inactive) | > 100 µM (inactive) | > 100 µM (inactive) | – |
| COC(=O)c1c(O)ccc2c1c1c(n2Cc2cccc(C)c2)C(=O)c2ccccc2C1=O | 10.7 µM (inactive) | 4.24 µM (inactive) | 16.1 µM (inactive) | 2.7 µM (inactive) | 11.2 µM (inactive) | – | 19.5 µM (inactive) | 14.4 µM (inactive) | 15 µM (inactive) | 16.7 µM (inactive) | 13 µM (inactive) | 6.97 µM (inactive) | 7.31 µM (inactive) | 16.1 µM (inactive) | 1.94 µM (inactive) | 16.6 µM (inactive) | 15.3 µM (inactive) | 4.98 µM (inactive) | 6.46 µM (inactive) | 16.6 µM (inactive) |
| O=c1ccn2n1CCCCC2 | > 100 µM (inactive) | > 100 µM (inactive) | > 100 µM (inactive) | > 100 µM (inactive) | > 100 µM (inactive) | – | > 100 µM (inactive) | > 100 µM (inactive) | > 100 µM (inactive) | > 100 µM (inactive) | > 100 µM (inactive) | > 100 µM (inactive) | > 100 µM (inactive) | > 100 µM (inactive) | 58.2 µM (inactive) | > 100 µM (inactive) | > 100 µM (inactive) | > 100 µM (inactive) | > 100 µM (inactive) | > 100 µM (inactive) |
| CC(=N/N=C/c1ccccn1)/C(C)=N/N=C(C)/C(C)=N/N=C(C)/C(C)=N/N=C(C)/C(C)=N\N=C\c1ccccn1 | > 100 µM (inactive) | – | > 100 µM (inactive) | > 100 µM (inactive) | > 100 µM (inactive) | > 100 µM (inactive) | > 100 µM (inactive) | > 100 µM (inactive) | > 100 µM (inactive) | > 100 µM (inactive) | > 100 µM (inactive) | > 100 µM (inactive) | > 100 µM (inactive) | > 100 µM (inactive) | > 100 µM (inactive) | > 100 µM (inactive) | > 100 µM (inactive) | > 100 µM (inactive) | > 100 µM (inactive) | 49.1 µM (inactive) |
| C=CCn1c(N)c(C#N)c(C#N)c1-c1ccccc1 | > 100 µM (inactive) | > 100 µM (inactive) | > 100 µM (inactive) | > 100 µM (inactive) | > 100 µM (inactive) | 26.2 µM (inactive) | 57.7 µM (inactive) | > 100 µM (inactive) | > 100 µM (inactive) | > 100 µM (inactive) | > 100 µM (inactive) | – | > 100 µM (inactive) | > 100 µM (inactive) | > 100 µM (inactive) | > 100 µM (inactive) | – | > 100 µM (inactive) | > 100 µM (inactive) | > 100 µM (inactive) |
| O=C1NCN(c2ccccc2)C12CCN(CCCN1CCN(CCOC(c3ccc(F)cc3)c3ccc(F)cc3)CC1)CC2 | 1.04 µM (active) | 3.15 µM (inactive) | 1.95 µM (inactive) | 1.51 µM (inactive) | 1.99 µM (inactive) | – | 2.88 µM (inactive) | 1.73 µM (inactive) | 1.88 µM (inactive) | 1.37 µM (inactive) | 1.83 µM (inactive) | 1.7 µM (inactive) | 2.15 µM (inactive) | 2.15 µM (inactive) | 1.58 µM (inactive) | 1.85 µM (inactive) | 2.47 µM (inactive) | 2.36 µM (inactive) | 2.92 µM (inactive) | 1.48 µM (inactive) |
| CN(C)c1ccc(/C=C(/NC(=O)c2ccccc2)C(=O)Nc2ccccc2C(=O)O)cc1 | > 100 µM (inactive) | > 100 µM (inactive) | > 100 µM (inactive) | > 100 µM (inactive) | > 100 µM (inactive) | > 100 µM (inactive) | > 100 µM (inactive) | > 100 µM (inactive) | > 100 µM (inactive) | > 100 µM (inactive) | > 100 µM (inactive) | > 100 µM (inactive) | > 100 µM (inactive) | > 100 µM (inactive) | > 100 µM (inactive) | > 100 µM (inactive) | > 100 µM (inactive) | > 100 µM (inactive) | – | > 100 µM (inactive) |
| CCOC(=O)C1CCC(=O)N1C(=O)c1ccccc1Cl (configuration not stated) | > 100 µM (inactive) | > 100 µM (inactive) | > 100 µM (inactive) | > 100 µM (inactive) | > 100 µM (inactive) | > 100 µM (inactive) | > 100 µM (inactive) | > 100 µM (inactive) | > 100 µM (inactive) | > 100 µM (inactive) | > 100 µM (inactive) | > 100 µM (inactive) | > 100 µM (inactive) | > 100 µM (inactive) | > 100 µM (inactive) | > 100 µM (inactive) | > 100 µM (inactive) | > 100 µM (inactive) | – | > 100 µM (inactive) |
| CC(=O)C(O)N1C(=O)C=CC1=O (configuration not stated) | 2.13 µM (inactive) | 2.05 µM (inactive) | 19.5 µM (inactive) | 21 µM (inactive) | 2.61 µM (inactive) | 6.24 µM (inactive) | 6.5 µM (inactive) | 12.8 µM (inactive) | 4.23 µM (inactive) | 2.19 µM (inactive) | 18.3 µM (inactive) | 5.61 µM (inactive) | 6.22 µM (inactive) | 5.05 µM (inactive) | > 25 µM (inactive) | 6 µM (inactive) | 10.4 µM (inactive) | 1.99 µM (inactive) | – | 1.74 µM (inactive) |
| Nc1ncnc2c1N=C(c1ccccc1)CC(c1ccccc1)N2 (configuration not stated) | > 100 µM (inactive) | > 100 µM (inactive) | 97.5 µM (inactive) | > 100 µM (inactive) | > 100 µM (inactive) | 23.6 µM (inactive) | > 100 µM (inactive) | > 100 µM (inactive) | > 100 µM (inactive) | > 100 µM (inactive) | > 100 µM (inactive) | > 100 µM (inactive) | > 100 µM (inactive) | > 100 µM (inactive) | > 100 µM (inactive) | > 100 µM (inactive) | > 100 µM (inactive) | > 100 µM (inactive) | > 100 µM (inactive) | – |
| O=C(/C=C1\Sc2ccccc2N=C1CC(=O)c1ccccc1)c1ccccc1 | 26.5 µM (inactive) | 1.79 µM (inactive) | 2.32 µM (inactive) | 10.1 µM (inactive) | 4.39 µM (inactive) | – | 6.17 µM (inactive) | 6.65 µM (inactive) | 6.14 µM (inactive) | 3.25 µM (inactive) | 3.64 µM (inactive) | 4.9 µM (inactive) | 3.67 µM (inactive) | 6 µM (inactive) | 6.98 µM (inactive) | 97.3 µM (inactive) | 8.89 µM (inactive) | 1.4 µM (inactive) | 4.99 µM (inactive) | 4.89 µM (inactive) |
| CCCCCCc1cc2cc(-c3cn4ccsc4n3)c(=O)oc2cc1O | 29.3 µM (inactive) | > 100 µM (inactive) | 64.9 µM (inactive) | > 100 µM (inactive) | > 100 µM (inactive) | 8.15 µM (inactive) | > 77.6 µM (inactive) | > 79.1 µM (inactive) | – | – | > 100 µM (inactive) | > 67.6 µM (inactive) | > 53.3 µM (inactive) | > 75 µM (inactive) | > 100 µM (inactive) | > 24.5 µM (inactive) | > 25.4 µM (inactive) | > 100 µM (inactive) | > 79.6 µM (inactive) | > 100 µM (inactive) |
| CC(C)(C)C1=NC(=S)SC2=NC(=O)C3(NN21)c1ccccc1-c1ccccc13 | > 10 µM (inactive) | 3.45 µM (inactive) | > 10 µM (inactive) | > 10 µM (inactive) | 6.14 µM (inactive) | > 10 µM (inactive) | 2.67 µM (inactive) | > 10 µM (inactive) | > 10 µM (inactive) | > 10 µM (inactive) | > 10 µM (inactive) | – | > 10 µM (inactive) | 9.46 µM (inactive) | 2.04 µM (inactive) | > 10 µM (inactive) | > 10 µM (inactive) | 4.59 µM (inactive) | 7.98 µM (inactive) | 6.79 µM (inactive) |
| O=C(N/N=C/c1ccc2c(c1)OCO2)Nc1ccccc1Cl | 1.57 µM (inactive) | 0.462 µM (active) | 2.61 µM (inactive) | 0.361 µM (active) | 7.43 µM (inactive) | – | 8.07 µM (inactive) | 2.02 µM (inactive) | 0.671 µM (active) | 0.946 µM (active) | 0.47 µM (active) | 0.861 µM (active) | 2.56 µM (inactive) | 4.7 µM (inactive) | 2.08 µM (inactive) | 2.23 µM (inactive) | 9.95 µM (inactive) | 0.22 µM (active) | 10 µM (inactive) | 0.565 µM (active) |
| Cc1cc(S(=O)(=O)NC2=NCCCN2)c(S)cc1Cl | 66.2 µM (inactive) | – | 54.3 µM (inactive) | 36.1 µM (inactive) | 33.8 µM (inactive) | 42.3 µM (inactive) | 38.9 µM (inactive) | 72.4 µM (inactive) | 29.6 µM (inactive) | 26.4 µM (inactive) | – | 31.8 µM (inactive) | 24.3 µM (inactive) | 72.9 µM (inactive) | 25.2 µM (inactive) | 37.5 µM (inactive) | 56.4 µM (inactive) | 21.2 µM (inactive) | 16.8 µM (inactive) | 22.1 µM (inactive) |
